We go through 2 compounds from ChEMBL document CHEMBL4765407, “Design, synthesis and high antitumor potential of new unsymmetrical bisacridine derivatives towards human solid tumors, specifically pancreatic cancers and their unique ability to stabilize DNA G-quadruplexes” (Eur J Med Chem, 2020).

For assay [1], the system named is Quadruplex DNA. Nature of the assay: Stabilization of 5'-FAM/3'-TAMRA labeled c-Myc promoter G4 quadruplex DNA FPu18 (unknown origin) assessed as change in melting temperature at 10 microM measured after 15 mins by FRET assay. The assay is classed as nucleic-acid assay.
The subject of assay [2] is Quadruplex DNA. Description: Stabilization of 5'-FAM/3'-TAMRA labeled K-Ras G4 quadruplex DNA (unknown origin) assessed as change in melting temperature at 10 microM measured after 15 mins by FRET assay. The assay is classed as nucleic-acid assay.
Assay [3] deals with NCI-H460. Description: Antitumour activity against human NCI-H460 cells xenografted in Crl:Nu-Foxnl nu mouse assessed as inhibition of tumour growth at total effective dose of 48 mg/kg, iv measured on day 23. Conditions: 552 h, time 23 day, read-out: TGI. The class given is functional. A general note: In xenograft studies the graft and the host belong to different species.
Another assay relates to MCF7. Nature of the assay: Cytotoxicity against human MCF7 cells assessed as reduction in cell viability measured after 72 hrs by SRB assay. The assay is classed as functional, cell-based. The following applies: MCF7, 72 h. A general note: Sulforhodamine B stains cellular protein and so reports cell mass.
Assay [4] has as its system PANC-1. Description: Cytotoxicity against human PANC-1 cells assessed as reduction in cell viability measured after 72 hrs by SRB assay. The assay is classed as functional, cell-based. Conditions: PANC-1, 72 h.
Assay [5] can be described thus: Stabilization of ds 5'-FAM-d(TATAGCTATA-HEG-TATAGCTATA)-TAMRA-3' (unknown origin) assessed as change in melting temperature at 10 microM measured after 15 mins by FRET assay. The following applies: Homo sapiens.
Assay [6] concerns HCT-116. Description: Antitumour activity against human HCT-116 cells xenografted in Crl:Nu-Foxnl nu mouse assessed as inhibition of tumour growth at total effective dose of 18 mg/kg, ip measured on day 14. The class given is functional. Conditions: HCT-116, ip, 336 h, time 14 day, read-out: TGI.
Assay [7] concerns HCT-116. Description: Cytotoxicity against human HCT-116 cells assessed as reduction in cell viability measured after 72 hrs by SRB assay. The assay is classed as functional, cell-based. Conditions: HCT-116, 72 h.
For a further assay, the system named is UMUC3. Description: Cytotoxicity against human UMUC3 cells assessed as reduction in cell viability measured after 72 hrs by SRB assay. Conditions: UMUC3, 72 h. The assay is classed as functional, cell-based.
Assay [8] relates to MDA-MB-231. Nature of the assay: Cytotoxicity against human MDA-MB-231 cells assessed as reduction in cell viability measured after 72 hrs by SRB assay. Conditions: MDA-MB-231, 72 h. The assay is classed as functional, cell-based.
Assay [9] has as its system DU-145. Description: Antitumour activity against human DU-145 cells xenografted in Crl:Nu-Foxnl nu mouse assessed as inhibition of tumour growth at total effective dose of 16 mg/kg, iv measured on day 35. The assay is classed as functional. The following applies: DU-145, iv, 840 h, time 35 day, read-out: TGI.
For another assay, the system named is MIA PaCa-2. Nature of the assay: Cytotoxicity against human MIA PaCa-2 cells assessed as reduction in cell viability measured after 72 hrs by SRB assay. The class given is functional, cell-based. Conditions: MIA PaCa-2, 72 h.
In the next assay the test system is PC-3. Description: Cytotoxicity against human PC-3 cells assessed as reduction in cell viability measured after 72 hrs by SRB assay. The class given is functional, cell-based. Conditions: PC-3, 72 h.
Assay [10] has as its system HCT-116. Description: Antitumour activity against human HCT-116 cells xenografted in Crl:Nu-Foxnl nu mouse assessed as inhibition of tumour growth at total effective dose of 24 mg/kg, iv measured on day 30. The class given is functional. Conditions: HCT-116, iv, 720 h, time 30 day, read-out: TGI.
A further assay has as its system ASPC1. Description: Cytotoxicity against human ASPC1 cells assessed as reduction in cell viability measured after 72 hrs by SRB assay. The assay is classed as functional, cell-based. Conditions: ASPC1, 72 h.
In another assay the test system is W256. Nature of the assay: Antitumour activity against Walker 256 adenocarcinoma cells implanted in Wistar rat assessed as increase in animal survival rate by measuring T/C ratio at 2.5 mg/kg, ip qd for 3 days administered on day 3,4,5 after tumor cell transplantation. The assay is classed as functional. Conditions: time 3 day.
Assay [11] has as its system DU-145. Nature of the assay: Antitumour activity against human DU-145 cells xenografted in Crl:Nu-Foxnl nu mouse assessed as inhibition of tumour growth at total effective dose of 8 mg/kg, iv measured on day 64. The assay is classed as functional. Conditions: DU-145, iv, 1536 h, time 64 day, read-out: TGI.
The subject of assay [12] is DU-145. Description: Cytotoxicity against human DU-145 cells assessed as reduction in cell viability measured after 72 hrs by SRB assay. The class given is functional, cell-based. The following applies: DU-145, 72 h.
The test system of assay [13] is Quadruplex DNA. Nature of the assay: Stabilization of 5'-FAM/3'-TAMRA labeled telomeric G4 quadruplex DNA F21T (unknown origin) assessed as change in melting temperature at 10 microM measured after 15 mins by FRET assay. The class given is nucleic-acid assay.
Assay [14] deals with NCI-H460. Nature of the assay: Cytotoxicity against human NCI-H460 cells assessed as reduction in cell viability measured after 72 hrs by SRB assay. The assay is classed as functional, cell-based. Conditions: NCI-H460, 72 h.
Assay [15] concerns HCT-116. Description: Antitumour activity against human HCT-116 cells xenografted in Crl:Nu-Foxnl nu mouse assessed as inhibition of tumour growth at total effective dose of 120 mg/kg, iv measured on day 15. The assay is classed as functional. Conditions: HCT-116, iv, 360 h, time 15 day, read-out: TGI.
The subject of the next assay is HT-29. Nature of the assay: Cytotoxicity against human HT-29 cells assessed as reduction in cell viability measured after 72 hrs by SRB assay. The class given is functional, cell-based. The following applies: HT-29, 72 h.
Another assay relates to BXPC-3. Description: Cytotoxicity against human BXPC-3 cells assessed as reduction in cell viability measured after 72 hrs by SRB assay. The following applies: BXPC-3, 72 h. The class given is functional, cell-based.
Assay [16] deals with PANC-1. Nature of the assay: Antitumour activity against human PANC-1 cells xenografted in Crl:Nu-Foxnl nu mouse assessed as inhibition of tumour growth at total effective dose of 160 mg/kg, iv measured on day 26. The assay is classed as functional. The following applies: PANC-1, iv, 624 h, time 26 day, read-out: TGI.
Another assay has as its system Capan-2. Description: Cytotoxicity against human Capan-2 cells assessed as reduction in cell viability measured after 72 hrs by SRB assay. The assay is classed as functional, cell-based. The following applies: Capan-2, 72 h.
In assay [17] the test system is MDA-MB-231. Description: Antitumour activity against human MDA-MB-231 cells xenografted in Crl:Nu-Foxnl nu mouse assessed as inhibition of tumour growth at total effective dose of 40 mg/kg, iv measured on day 39. The assay is classed as functional. Conditions: MDA-MB-231, iv, 936 h, time 39 day, read-out: TGI.

The term ΔTm denotes the change in melting temperature against a reference sample. Broadly, the IC50 is the concentration at which inhibition is half-maximal. In general, T/C refers to the result in the treated group divided by that in the control group, in per cent. In the case of `O=c1c2ccccc2[nH]c2c([N+](=O)[O-])ccc(NCCCN3CCN(CCCNc4c5ccccc5nc5cccc([N+](=O)[O-])c45)CC3)c12`, the ΔTm is 23.7 °C with Quadruplex DNA [1], 25.1 °C in the assay with Quadruplex DNA [2], 3.2 °C in assay [5] and 8.5 °C with Quadruplex DNA [13]. Further, the inhibition in vivo at 48 mg/kg in the assay on NCI-H460 [3] turned out to be 60%. For the same compound, the concentration for half-maximal inhibition (IC50) came to 77 nM in the assay on MCF7; 56 nM in the assay with PANC-1 [4]; 20 nM in the assay on HCT-116 [7]; 17 nM in the assay with UMUC3; 28 nM in the assay with MDA-MB-231 [8]; 28 nM in the assay on MIA PaCa-2. In addition, the IC50 turned out to be 26 nM in the assay on PC-3, 78 nM in the assay with ASPC1, 11 nM with DU-145 [12] and 9 nM in the assay with NCI-H460 [14]. The inhibition in vivo at 18 mg/kg in the assay with HCT-116 [6] turned out to be 52%. Further, the inhibition in vivo at 16 mg/kg with DU-145 [9] was 77%. Besides, the inhibition in vivo at 24 mg/kg with HCT-116 [10] worked out at 34%. In addition, the T/C in the assay on W256 is 400%. Moreover, the inhibition in vivo at 8 mg/kg in the assay on DU-145 [11] is 81%.

Take `Cc1ccc([N+](=O)[O-])c2c(NCCCN3CCN(CCCNc4ccc5ncn6c7ccc(O)cc7c(=O)c4c56)CC3)c3ccccc3nc12`: the shift in melting temperature (ΔTm) in the assay with Quadruplex DNA [1] was determined as 21.3 °C; in the assay with Quadruplex DNA [2], 18.8 °C; in [5], 4.4 °C; with Quadruplex DNA [13], 16.4 °C. Besides, the inhibition in vivo at 120 mg/kg in the assay with HCT-116 [15] came to 4%. Further, the IC50 in the assay on MCF7 turned out to be 244 nM; in the assay with HT-29, 237 nM; in the assay on BXPC-3, 354 nM; in the assay with PANC-1 [4], 42 nM; in the assay on HCT-116 [7] it was 51 nM; with UMUC3, 35 nM. Further, the half-maximal inhibitory concentration (IC50) stood at 17 nM in the assay on MDA-MB-231 [8]; 68 nM with Capan-2; 38 nM with MIA PaCa-2; 130 nM in the assay with PC-3; 343 nM in the assay on ASPC1; 67 nM in the assay with DU-145 [12]. Besides, the IC50 in the assay on NCI-H460 [14] was 74 nM. Also, the inhibition in vivo at 160 mg/kg in the assay on PANC-1 [16] came out at 61%. The inhibition in vivo at 40 mg/kg with MDA-MB-231 [17] is 12%.
